Results from paper PMC12030043, “Preparation and Therapeutic Evaluation of Engineered Semaglutide and Statin–Lipid Conjugate-Based Nanoparticle” (Pharmaceutics, 2025).

What was measured:
[1] = tested on: high-fat diet (HFD)-fed mouse model; assay: Anti-obesity effect (body weight) in high-fat diet (HFD)-fed mouse model; assay type: in vivo; conditions: HFD-fed C57BL/6 mice, day 69, s.c. every three days from day 28; RO 0.5 mg/kg, SRLC NPs 1.1 mg/kg; mean ± S.D., n = 5
Procedure: (§1) All animal experiments were conducted under the standard regulations of the Institutional Animal Care and Use Committee (IACUC) at Konkuk University (ref. no. KU22078-1). The animals were housed in a controlled environment with regulated temperature and humidity, maintained under a 12 h light–dark cycle. Obesity was induced in 5-week-old male C57BL/6 mice through dietary control for 69 days. A total of 25 mice were used and divided into five experimental groups: negative control (regular diet, RD), positive control (high-fat diet, HFD), RO (0.5 mg/kg), RLC (1 mg/kg), and SRLC NPs (1.1 mg/kg). The RO dose was set at half that of RLC due to its molecular weight being approximately twice that of RLC, ensuring equivalent molar exposure. Additionally, the SRLC NP dose was adjusted to 1.1 mg/kg as it comprised 1 mg of RLC and 0.1 mg of semaglutide, allowing for the accurate comparison of therapeutic effects. While the RD group received a normal diet, the other groups were fed a high-fat diet (HFD) consisting of 60 kcal% fat (D12492, Research Diets, New Brunswick, NJ, USA). The body weights of the mice were measured weekly. Starting from day 28 of the dietary intervention, each group received their respective substances via subcutaneous injection every three days. […] Blood glucose levels were then measured at time intervals of 0, 15, 30, 60, 90, 120, and 180 min (n = 3).

[2] = tested on: high-fat diet (HFD)-fed mouse model; assay: Histopathology (H&E and oil red O staining) of liver and adipose tissue in HFD-fed mice; assay type: in vivo, C57BL/6 mice
Procedure: All animal experiments were conducted under the standard regulations of the Institutional Animal Care and Use Committee (IACUC) at Konkuk University (ref. no. KU22078-1). The animals were housed in a controlled environment with regulated temperature and humidity, maintained under a 12 h light–dark cycle. Obesity was induced in 5-week-old male C57BL/6 mice through dietary control for 69 days. A total of 25 mice were used and divided into five experimental groups: negative control (regular diet, RD), positive control (high-fat diet, HFD), RO (0.5 mg/kg), RLC (1 mg/kg), and SRLC NPs (1.1 mg/kg). The RO dose was set at half that of RLC due to its molecular weight being approximately twice that of RLC, ensuring equivalent molar exposure. Additionally, the SRLC NP dose was adjusted to 1.1 mg/kg as it comprised 1 mg of RLC and 0.1 mg of semaglutide, allowing for the accurate comparison of therapeutic effects. While the RD group received a normal diet, the other groups were fed a high-fat diet (HFD) consisting of 60 kcal% fat (D12492, Research Diets, New Brunswick, NJ, USA). The body weights of the mice were measured weekly. Starting from day 28 of the dietary intervention, each group received their respective substances via subcutaneous injection every three days. Five days before the end of the experiment, an oral glucose tolerance test (OGTT) was conducted to assess glucose sensitivity. After 19 h of fasting, all experimental groups were administered a glucose solution orally (2 g/kg). Blood glucose levels were then measured at time intervals of 0, 15, 30, 60, 90, 120, and 180 min (n = 3). Blood glucose levels were assessed using a glucometer (G CARE, GC Medical Science, Yongin, Republic of Korea). On the final day of the experiment, after 14 h of fasting, the mice were anesthetized via intraperitoneal administration of 2,2,2-tribromoethanol (TBE), and blood samples were collected. Hepatotoxicity and lipid profiling analyses were conducted using the collected blood samples, while liver tissues were subjected to hematoxylin and eosin (H&E) and oil red O (ORO) staining for further evaluation. All analyses were performed by KP&T Technology (Cheongju, Republic of Korea).
Representative images of mice from the HFD group and the SRLC NPs-treated group on the final day of the experiment are shown in Figure 9A. To evaluate the pathological changes at the tissue level and the therapeutic effects of SRLC NPs, hematoxylin and eosin (H&E) staining and oil red O (ORO) staining were performed (Figure 9B). These staining analyses were conducted to confirm the reduction in hepatic fat accumulation and assess adipose tissue remodeling following SRLC NPs treatment. […] The area of the adipocyte in sWAT (n = 4) was as follows: HFD, 78.86 ± 1.38%; RO, 77.51 ± 2.52%; RLC, 72.72 ± 2.75%; and SRLC NPs, 47.45 ± 1.03% (Figure 9E). The diameter of the adipocyte in eWAT (n = 7) was the following: HFD, 64.12 ± 12.51 µm; RO, 59.53 ± 6.42 µm; RLC, 57.01 ± 7.04 µm; and SRLC NPs, 33.79 ± 3.62 µm (Figure 9F). The area of the adipocyte in eWAT (n = 4) was as follows: HFD, 76.44 ± 1.91%; RO, 79.30 ± 1.91%; RLC, 79.223 ± 1.53%; and SRLC NPs, 63.28 ± 2.94% (Figure 9G).

[3] = tested on: high-fat diet (HFD)-fed mouse model; assay: Oral glucose tolerance test (OGTT) in HFD-fed mice; assay type: in vivo, C57BL/6 mice; conditions: day 64, 19 h fasting, oral glucose 2 g/kg, 0-180 min, glucometer, n = 3; RO 0.5 mg/kg, RLC 1 mg/kg, SRLC NPs 1.1 mg/kg s.c.
Procedure: as §1

[4] = conventional semaglutide formulations; ref [11],[12]; cited from earlier work
Text: Obesity and non-alcoholic fatty liver disease (NAFLD) have emerged as critical health concerns in modern society, closely linked to diabetes, cardiovascular diseases, and metabolic syndrome. As one of the most rapidly increasing metabolic disorders worldwide, there is a continuous demand for the development of effective therapeutic agents and treatment strategies.

SMILES | body weight at the end of the experiment [1] [g] | lipid staining and fat droplet accumulation in liver tissue (in words) ([2]; H&E and ORO staining, RO 0.5, RLC 1, SRLC NPs 1.1 mg/kg s.c.) | diameter of the adipocyte in sWAT ([2]; H&E, HFD group 60.32 ± 6.95 µm, mean ± S.D., n = 7) [µm] | diameter of the adipocyte in eWAT ([2]; H&E, HFD group 64.12 ± 12.51 µm, mean ± S.D., n = 7) [µm] | area of the adipocyte in eWAT ([2]; H&E, HFD group 76.44 ± 1.91%, mean ± S.D., n = 4) [%] | area of the adipocyte in sWAT ([2]; H&E, HFD group 78.86 ± 1.38%, mean ± S.D., n = 4) [%] | quantification of ORO staining ([2]; liver tissue, HFD group = 100.00 ± 15.00%, RO 0.5, RLC 1, SRLC NPs 1.1 mg/kg s.c., mean ± S.D., n = 4) [%] | blood glucose response in OGTT (in words) [3] | oral bioavailability [4]
CC(C)c1nc(N(C)S(C)(=O)=O)nc(-c2ccc(F)cc2)c1/C=C/[C@@H](O)C[C@@H](O)CC(=O)O [RO, Rosuvastatin calcium] | 36.20 ± 2.34 | abnormal fat droplet accumulation | 51.20 ± 8.99 | 59.53 ± 6.42 | 79.30 ± 1.91 | 77.51 ± 2.52 | 70.50 ± 8.02 | sharp increase in blood glucose levels immediately after administration, followed by a gradual decline | 
CC[C@H](C)[C@H](NC(=O)[C@H](Cc1ccccc1)NC(=O)[C@H](CCC(=O)O)NC(=O)[C@H](CCCCNC(=O)COCCOCCNC(=O)COCCOCCNC(=O)CC[C@H](NC(=O)CCCCCCCCCCCCCCCCC(=O)O)C(=O)O)NC(=O)[C@H](C)NC(=O)[C@H](C)NC(=O)[C@H](CCC(N)=O)NC(=O)CNC(=O)[C@H](CCC(=O)O)NC(=O)[C@H](CC(C)C)NC(=O)[C@H](Cc1ccc(O)cc1)NC(=O)[C@H](CO)NC(=O)[C@H](CO)NC(=O)[C@@H](NC(=O)[C@H](CC(=O)O)NC(=O)[C@H](CO)NC(=O)[C@@H](NC(=O)[C@H](Cc1ccccc1)NC(=O)[C@@H](NC(=O)CNC(=O)[C@H](CCC(=O)O)NC(=O)C(C)(C)NC(=O)[C@@H](N)Cc1cnc[nH]1)[C@@H](C)O)[C@@H](C)O)C(C)C)C(=O)N[C@@H](C)C(=O)N[C@@H](Cc1c[nH]c2ccccc12)C(=O)N[C@@H](CC(C)C)C(=O)N[C@H](C(=O)N[C@@H](CCCNC(=N)N)C(=O)NCC(=O)N[C@@H](CCCNC(=N)N)C(=O)NCC(=O)O)C(C)C [semaglutide] |  |  |  |  |  |  |  |  | ~ 1%
